From ChEMBL document CHEMBL1201862, “PubChem BioAssay data set” (2004)
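96-well plates; 48 h exposure; 5 concentrations. Endpoints by linear interpolation between flanking doses. Not reached: highest tested concentration assigned. Here, GI50 denotes the concentration required for 50% inhibition of growth.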 The source made the active and inactive calls. No stated cut-off is given here; in the data, active = GI50 up to about 1.1 µM and inactive = higher.

What was measured:
Assay in all cases: NCI tumour cell line growth inhibition, 48 h
SNB-78 = test system: SNB-78
DMS-273 = test system: DMS-273
HOP-18 = test system: HOP-18
DMS-114 = test system: DMS-114
KM-20L2 = test system: KM-20L2
LXFL 529 = test system: LXFL 529
M19-MEL = test system: M19-MEL
DLD-1 = test system: DLD-1
RXF 631 = test system: RXF 631

Measured: GI50

NC(=O)C(=O)n1ncc(Cl)c(Cl)c1=O
inactive: SNB-78 20.3 µM | DMS-273 25 µM | HOP-18 20 µM | DMS-114 16.9 µM | KM-20L2 28.7 µM | LXFL 529 15.1 µM | M19-MEL 24.7 µM | DLD-1 15.3 µM

COC(=O)C1=C(O)C(O)=C(C(=O)OC)CC1
inactive: SNB-78 > 100 µM | DMS-273 > 100 µM | HOP-18 > 100 µM | DMS-114 > 100 µM | LXFL 529 > 100 µM | M19-MEL > 100 µM | DLD-1 > 100 µM

N#CC1CC2(C(=O)C1=O)c1ccccc1-c1ccccc12 (stereo not given)
inactive: DMS-273 > 100 µM | HOP-18 82 µM | DMS-114 > 100 µM | KM-20L2 > 100 µM | LXFL 529 > 100 µM | M19-MEL > 100 µM | DLD-1 > 100 µM

COc1ccc(/C=N/N=C(\N)NO)cc1O
inactive: SNB-78 > 100 µM | HOP-18 > 100 µM | DMS-114 30.2 µM | LXFL 529 > 100 µM | DLD-1 33.8 µM

COc1ccc(Nc2nc3c(N)cc(C(F)(F)F)cc3nc2-c2ccccc2)cc1
inactive: SNB-78 60.4 µM | DMS-273 > 100 µM | HOP-18 36.7 µM | DMS-114 80.7 µM | KM-20L2 > 100 µM | LXFL 529 78.2 µM | M19-MEL > 100 µM | RXF 631 44.6 µM | DLD-1 > 100 µM

C=CCc1cc(-c2cc(CC=C)c(O)c(CNC)c2)cc(CNC)c1O
inactive: SNB-78 19.5 µM | DMS-114 16.1 µM | KM-20L2 16.6 µM | LXFL 529 15.2 µM | M19-MEL 14.2 µM | RXF 631 15.3 µM | DLD-1 15.4 µM

COC1(C)C(=O)N2C1N(C(=O)OC(C)(C)C)CC2(C)C (stereo not given)
inactive: SNB-78 > 100 µM | DMS-273 > 100 µM | HOP-18 > 100 µM | DMS-114 42.8 µM | KM-20L2 > 100 µM | LXFL 529 > 100 µM | M19-MEL > 100 µM | DLD-1 > 100 µM

Cc1cccc2c1CCC21OC(=O)c2c1ccc1ccccc21 (stereo not given)
inactive: DMS-273 32.7 µM | HOP-18 42 µM | DMS-114 24.8 µM | KM-20L2 53.8 µM | LXFL 529 47.6 µM | M19-MEL 49 µM | RXF 631 24.4 µM | DLD-1 83.9 µM

N#CC(C#N)=C1SCC(=O)CS1
inactive: SNB-78 > 100 µM | DMS-273 > 100 µM | DMS-114 > 100 µM | KM-20L2 > 100 µM | LXFL 529 > 100 µM | M19-MEL > 100 µM | RXF 631 > 100 µM | DLD-1 > 100 µM

CC1(C)OCC(CO)(Nc2nc(N3CC3)nc(N3CC3)n2)CO1
inactive: SNB-78 22.3 µM | DMS-273 3.04 µM | HOP-18 27 µM | DMS-114 4.65 µM | KM-20L2 18.6 µM | LXFL 529 24.5 µM | M19-MEL 13.9 µM | DLD-1 31.3 µM

CC(C)(C)NNC(=O)/C(=C/c1ccc([N+](=O)[O-])cc1)NC(=O)c1ccccc1
inactive: SNB-78 > 100 µM | DMS-273 33.7 µM | HOP-18 > 100 µM | DMS-114 18.6 µM | KM-20L2 > 100 µM | LXFL 529 > 100 µM | M19-MEL > 100 µM | DLD-1 43.5 µM

COC(=O)/C(C#N)=C1\CCC(C(=O)OC)N1C (stereo not given)
inactive: SNB-78 > 100 µM | DMS-273 > 100 µM | DMS-114 > 100 µM | KM-20L2 > 100 µM | M19-MEL > 100 µM | RXF 631 > 100 µM | DLD-1 > 100 µM

CCCC(O)c1cn(-c2cccc(S(=O)(=O)O)c2)nn1 (stereo not given)
inactive: SNB-78 > 100 µM | DMS-273 > 100 µM | HOP-18 > 100 µM | DMS-114 > 100 µM | KM-20L2 > 100 µM | LXFL 529 > 100 µM | M19-MEL > 100 µM | RXF 631 > 100 µM | DLD-1 > 100 µM

O=C1CSC(/C(=C/c2ccccc2)c2nc3ccccc3[nH]2)=N1
inactive: SNB-78 > 100 µM | DMS-114 32.3 µM | KM-20L2 > 100 µM | LXFL 529 47.4 µM | M19-MEL 65.9 µM | DLD-1 > 100 µM

CCOC(=O)C(=C=Cc1cccs1)C(=O)c1ccccc1
inactive: SNB-78 18.3 µM | DMS-273 17.4 µM | HOP-18 17.5 µM | LXFL 529 14.9 µM | M19-MEL 17.2 µM | DLD-1 14.3 µM

C=Cc1c(-c2ccccc2)cnc2[nH]c3ccccc3c12
inactive: DMS-273 > 50 µM | DMS-114 > 50 µM | LXFL 529 > 50 µM | M19-MEL > 50 µM | DLD-1 > 50 µM

CCc1cccc(CC)c1NC(=O)C1=C(C)NC(C)=C(C(=O)Nc2c(CC)cccc2CC)C1c1ccc2c(c1)OCO2
inactive: SNB-78 22.6 µM | DMS-273 13.3 µM | HOP-18 20.6 µM | KM-20L2 16.9 µM | LXFL 529 15.9 µM | M19-MEL 16.7 µM | DLD-1 24.3 µM

O=C(NC12CC3CC(CC(F)(C3)C1)C2)c1ccccc1
inactive: SNB-78 > 100 µM | DMS-273 > 100 µM | DMS-114 > 100 µM | KM-20L2 > 100 µM | LXFL 529 > 100 µM | M19-MEL > 100 µM | DLD-1 > 100 µM

C/C(=N/Nc1ccc([N+](=O)[O-])cc1[N+](=O)[O-])C(CC(C(=O)Nc1ccccc1C)/C(C)=N\Nc1ccc([N+](=O)[O-])cc1[N+](=O)[O-])C(=O)Nc1ccccc1C (stereo not given)
inactive: SNB-78 16.4 µM | DMS-273 14.8 µM | HOP-18 14.4 µM | DMS-114 6.87 µM | KM-20L2 31 µM | LXFL 529 14.3 µM | M19-MEL 12.4 µM | DLD-1 28.4 µM

O=C(COC(=O)c1cccc2c(=O)c3ccccc3[nH]c12)Nc1ccc(Cl)cc1
inactive: SNB-78 25.7 µM | HOP-18 > 100 µM | DMS-114 58.6 µM | KM-20L2 > 100 µM | LXFL 529 61.7 µM | M19-MEL > 100 µM | DLD-1 16.9 µM
